Data published in patent publication US9097673B2, “Processes and kits for determining multi-drug resistance of cells” (ENZO LIFE SCIENCES, INC., priority 2010, dated 2015).

Columns and labels:
A549 cell line [1] = test: Dye efflux flow cytometry MDR assay; format: cell-based, human; set-up: key to D-value, Verapamil / D-value, Novobiocin: KS D value, 0 to 1; negative if control brighter than sample; details: A549, dye efflux
Description: (§1) Kolmogorov-Smirnov statistics measures the difference between two distribution functions and generates a D value ranging between 0 and 1.0, with higher values indicating a greater difference between the distribution functions. The D value generated by the KS statistics was modified by ascribing a negative value if the fluorescence of a negative control (no inhibitor) was brighter than the fluorescence of the sample with inhibitor. The method was one of those recommended by the First International MDR1 Methods Detection Workshop (St. Jude Children's Research Hospital, Memphis, Tenn.).
(§2) Cells were grown in tissue culture dishes and on the day of assay they were trypsinized and washed twice with ice-cold PBS. Post-wash, the cells were re-suspended in cold phenol red indicator-free medium at a density of 1×10^6/ml. For each detection set, eighteen tubes (6 tubes without inhibitor and 3 tubes for each inhibitor tested, in triplicates) each containing 2.5-5×10^5/cells were prepared. Cells were centrifuged at 200×g for 5 min, and after discarding supernatant, re-suspended at 1×10^6/ml in ice-cold indicator-free medium containing Fluo-8™ AM or Rhod-4™ AM probes. Additionally, an aliquot of non-stained cells was prepared for background fluorescence measurements. Cells were incubated with the probe(s) on ice for 60 min, than centrifuged at 200×g for 5 min. After discarding the supernatant, cells were either washed twice with PBS or simply were spun down to remove the excess of the probe and resuspended at 5×10^5 cells/sample in 0.5 ml of following solutions:
(§3) 1. warm (37° C.) indicator-free medium containing vehicle only (3 tubes)
(§4) 2. warm (37° C.) indicator-free medium containing inhibitor (3 tubes for each inhibitor tested)
(§5) 3. ice-cold indicator-free medium (3 tubes)
(§6) Tube sets 1 and 2 were immediately transferred to a water bath (37° C.) and incubated for 90 min. Tube set 3 was kept on ice. Post incubation, 4 ml of ice-cold indicator-free medium was added per tube, tubes were centrifuged at 200×g for 5 min, supernatant was discarded, and cell pellet was re-suspended in the cold indicator-free medium and centrifuged again. Finally, cells were re-suspended in 0.5 ml of cold indicator-free medium and maintained on ice until analysis. Alternatively, cells were analyzed without washing. Flow cytometry experiments were performed as described in Example 3.

HeLa cell line [2] = test: Dye efflux flow cytometry MDR assay; format: cell-based, human; set-up: key to D-value, Verapamil / D-value, Novobiocin: KS D value, 0 to 1; negative if control brighter than sample
Description: as §1, §2, §3, §4, §5, §6

Hep G2 cells = test: Dye uptake flow cytometry MDR assay; format: cell-based, human; set-up: key: Kolmogorov-Smirnov D statistic comparing fluorescence distributions; details: HepG2, dye uptake
Description: (§7) Cells were grown on tissue culture dishes and on the day of assay were trypsinized and washed twice with warm (37° C.) phosphate-buffered saline (PBS). Post-wash, the cells were re-suspended in warm phenol red indicator-free medium at a density of 1×10^6/ml. For each detection set, sixteen tubes (5 samples in triplicates plus non-stained control for background fluorescence) in numbered tubes each containing 5×10^5/cells (0.5 ml) were prepared. […] After incubation for 5 min at 37° C., 0.25 ml of warm medium with Fluo-8™ AM probe (5 μM final concentration) or Rhod-4™ AM probe (2 μM final concentration) was added to each tube excluding non-stained control that receives plain medium and cells were incubated for 30 min at 37° C. and analyzed immediately by flow cytometry. In the second set of the tubes, the reaction was stopped by rapid centrifugation (1 min) at relatively low speed (200×g). After wash with ice-cold PBS and discarding the supernatant, cells were re-suspended in 0.5 ml of ice-cold medium and kept on ice until flow cytometry analysis. The third set of cells simply was spun down (1 min, 200×g) to remove the excess of the probe, resuspended in ice-cold medium and kept on ice until flow cytometry analysis.
(§8) Flow cytometry experiments were performed using a FACS Calibur benchtop flow cytometer (BD Biosciences) equipped with a blue (488 nm) laser, and the signals were registered in the FITC (530/30 filter), PE (585/42 filter) and PerCP (670 LP filter) channels. Fluo-8™ dye fluorescence was measured in the FL1 channel, and Rhod-4™ dye fluorescence—in the FL2 channel. Flow cytometry data were analyzed by comparison of median fluorescence or using Kolmogorov-Smirnov statistics [Young, J Histochem Cytochem 25:935-941 (1977)] or by calculating MAF values (MDR Activity Factor) using the following formula: MAF=100*((MFIinh−MFI0)/MFIinh), where MFIinh and MFI0 are mean fluorescence intensity values measured in the presence and absence of inhibitor [Hollo et al., Biochem Piophys Acta. 1191:384-388 (1994)].
(§9) Both human ileocecal colorectal carcinoma cell line HCT-8 (reported to over-express P-gp and, to a lesser extent, MRP [Hunter et al., Br J Cancer. 64:437-444 (1991); Collington et al., Biochem Pharmacol 44:417-424 (1992)] and hepatocellular carcinoma Hep G2 (reported to over-express MRP [Roelofsen et al., Gastroenterology 112:511-521 (1997), Cantz et al., Am J Physiol Gastrointest Liver Physiol. 278:G522-G531 (2000)] were obtained from ATCC. HCT-8 cells were routinely cultured in RPMI-1640 Medium with 2 mM L-glutamine, 10 mM HEPES, 1 mM sodium piruvate, 4.5 g/L glucose, 1.5 g/L sodium bicarbonate (ATCC), supplemented with 10% horse serum (ATCC) and 100 U/ml penicillin, 100 ug/ml streptomycin (Sigma-Aldrich, St. Louis, Mo.). Hep G2 cells were routinely cultured in Eagle's Minimum Essential Medium with low glucose (ATCC), supplemented with 10% heat inactivated fetal bovine serum (ATCC) and 100 U/ml penicillin, 100 ug/ml streptomycin (Sigma-Aldrich, St. Louis, Mo.). Cell cultures were maintained in a humidified incubator at 37° C., with 5% CO2 atmosphere. Stock solutions of the probes and inhibitors were prepared, as described in Examples 2 and 3. Cells were grown in tissue culture dishes and on the day of assay were treated according to a dye uptake protocol and analyzed by flow cytometry, as described in Example 3.

HCT-8 cells = test: Dye uptake flow cytometry MDR assay; format: cell-based, human; set-up: key: Kolmogorov-Smirnov D statistic comparing fluorescence distributions; details: HCT-8, dye uptake
Description: as §7, §8, §9

HeLa cell line [3] = test: Dye uptake flow cytometry MDR assay; format: cell-based, human; details: HeLa, dye uptake
Description: (§10) Concentrations of the modulators used in the experiments were non-toxic to the cells (based upon standard 3-(4,5-Dimethylthiazol-2-Yl)-2,5-Diphenyltetrazolium Bromide (MTT) testing, data not shown). Fluo-8™ was used in all experiments at 5 μM, and Rhod-4™—at 4 μM final concentrations.

CHO K1 cell line [4] = test: Dye efflux flow cytometry MDR assay; format: cell-based, hamster; set-up: key to D-value, Verapamil / D-value, Novobiocin: KS D value, 0 to 1; negative if control brighter than sample; details: CHO K1, dye efflux
Description: as §1, §2, §3, §4, §5, §6

CHO K1 cell line [5] = test: Dye uptake flow cytometry MDR assay; format: cell-based, hamster; details: CHO K1, dye uptake;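 further: flow cytometry of dye-loaded cells, Kolmogorov-Smirnov D value (0 to 1.0) comparing fluorescence with versus without inhibitor, made negative when the uninhibited control was brighter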
Description: as §10

A549 cell line [6] = test: Dye uptake flow cytometry MDR assay; format: cell-based, human; details: A549, dye uptake
Description: as §10

[7] = kept on ice without inhibitor (Table 9)
[8] = representative experiment (Table 9)
[9] = average of three representative experiments (Table 6)
[10] = representative experiment (Table 8)

CC(=O)OCOC(=O)CN(CC(=O)OCOC(C)=O)Cc1cc2c(cc1OC(C)=O)Oc1cc(OC(C)=O)c(CN(CC(=O)OCOC(C)=O)CC(=O)OCOC(C)=O)cc1C21OC(=O)c2ccccc21 [Calcein AM]
D-value, 4° C. (A549 cell line [1]; [7]): 0.50
D-value, Cyclosporine A (A549 cell line [1]; [8]): 0.35
D-value, Novobiocin (A549 cell line [1]; [8]): 0.15
D-value, Probenecid (A549 cell line [1]; [8]): 0.40
D-value, Verapamil (A549 cell line [1]; [8]): 0.03
D-value, 4° C. (HeLa cell line [2]; [7]): 0.07
D-value, Cyclosporine A (HeLa cell line [2]; [8]): 0.08
D-value, Novobiocin (HeLa cell line [2]; [8]): 0.04
D-value, Probenecid (HeLa cell line [2]; [8]): 0.62
D-value, Verapamil (HeLa cell line [2]; [8]): 0.1
D-value, CyclosporinA (Hep G2 cells): 0.29
D-value, MK-571 (Hep G2 cells): 0.29
D-value, Novobiocin (Hep G2 cells): 0.02
D-value, Verapamil (Hep G2 cells): 0.13
D-value, CyclosporinA (HCT-8 cells): 0.31
D-value, MK-571 (HCT-8 cells): 0.16
D-value, Novobiocin (HCT-8 cells): 0.44
D-value, Verapamil (HCT-8 cells): 0.71
D-value, Fumitremorgan C (HeLa cell line [3]; [9]): 0.03
D-value, Probenecid (HeLa cell line [3]; [9]): 0.06
D-value, Verapamil (HeLa cell line [3]; [9]): 0.17
D-value, Cyclosporine A (HeLa cell line [3]; [10]): 0.14
D-value, Novobiocin (HeLa cell line [3]; [10]): 0.09
D-value, Probenecid (HeLa cell line [3]; [10]): 0.09
D-value, Verapamil (HeLa cell line [3]; [10]): 0.13
D-value, 4° C. (CHO K1 cell line [4]; [7]): 0.65
D-value, Cyclosporine A (CHO K1 cell line [4]; [8]): 0.31
D-value, Novobiocin (CHO K1 cell line [4]; [8]): 0.13
D-value, Probenecid (CHO K1 cell line [4]; [8]): 0.47
D-value, Verapamil (CHO K1 cell line [4]; [8]): 0.26
D-value, Fumitremorgan C (CHO K1 cell line [5]; [9]): 0.17
D-value, Probenecid (CHO K1 cell line [5]; [9]): 0.77
D-value, Verapamil (CHO K1 cell line [5]; [9]): 0.74
D-value, Cyclosporine A (CHO K1 cell line [5]; [10]): 0.96
D-value, Novobiocin (CHO K1 cell line [5]; [10]): 0.06
D-value, Probenecid (CHO K1 cell line [5]; [10]): 0.70
D-value, Verapamil (CHO K1 cell line [5]; [10]): 0.93
D-value, Fumitremorgan C (A549 cell line [6]; [9]): 0.04
D-value, Probenecid (A549 cell line [6]; [9]): 0.36
D-value, Verapamil (A549 cell line [6]; [9]): 0.17
D-value, Cyclosporine A (A549 cell line [6]; [10]): 0.47
D-value, Novobiocin (A549 cell line [6]; [10]): 0.03
D-value, Probenecid (A549 cell line [6]; [10]): 0.27
D-value, Verapamil (A549 cell line [6]; [10]): 0.15
